Data set [1] has as its system MDA-MB-231-Luc human breast cancer cell line carrying mutant p53 (R280K). The data set is described as follows: In vivo efficacy study, orthotopic MDA-MB-231-Luc breast cancer xenograft in nude mice. The arrangement: species or system nude mice (Hsd:AthymicNude-Foxnlnu). The settings on record: 42 or 125 mg/kg intraperitoneally twice daily, 3 cycles of 5 days, compared to control animals. The procedure:
A: Luciferase luminescence from mice xenografted with MDA-MB-231-Luc breast cancer cells. B: Tumor weight at day 33 after beginning of treatment.
The compound of Example 4 was administered intraperitoneally twice daily at 42 or 125 mg/kg to nude mice (Hsd:AthymicNude-Foxnlnu) ortotopically xenografted with the human breast cancer cell line MDA-MB-231-Luc, carrying mutant p53 (R280K). To make MDA-MB-231-Luc, the cell line MDA-MB-231 was stably transfected with a synthetic gene for firefly luciferase, Luc2 (pGL4, Promega). Thereby, the tumor load may be externally monitored by luminescence measurement (radiance values; photon/second/cm^2/steradian). 5×10^6 MBA-MB-231-luc cells were injected, and eight days later the animals were stratified into treatment groups and control, 8 animals in each group, based on luminescence measurement. Treatment was started on day 11 and done in 3 cycles of 5 days each, with 2 days recovery. Tumor progression was evaluated by non-invasive in vivo imaging during the second cycle (day 18) and at the end of treatment (day 32). On day 33, the animals were sacrificed and the tumors excised and weighed.

The subject of data set [2] is SaOS-2 His273 mtp53 human osteosarcoma cell line. As to the kind of experiment: In vitro efficacy study using the SaOS-2 His273 protocol (CellTiter-Glo viability, 72 h). The format is cell-based. The settings on record: SAOS-2, growth suppression, 72 hours incubation, CellTiter-Glo, read-out: SaOS-2 His273 IC50. The procedure: SaOS-2 His273 mtp53 is a human osteosarcoma cell line which has been genetically engineered at OnkPat CCK to express His273 mutated p53.
3000 cells/well (50 μl) were seeded into masked (black or white with clear bottom) 96-well cell culture plates using Iscove's Modified Dulbecco's Medium supplemented with 10% heat inactivated (56° C. for 60 min) fetal calf serum. The plates were then incubated for 4 hours, allowing the cells to attach. The test compounds were dissolved in DMSO or water to a concentration of 0.01 M and then further diluted to desired concentrations using the cell medium. 50 μl of freshly diluted test compound from fresh stock was added to the wells. The plates were then incubated for 72 hours.
For viability detection, CellTiter-Glo® Luminescent Cell Viability Assay (CTG) was used. CTG is a homogeneous “add-mix-measure” format method of determining the number of viable cells in culture based on quantitation of the ATP present, an indicator of metabolically active cells. The luminescence was measured using the PerkinElmer Victorx4 instrument.
The average of the signal values for the untreated cells was calculated for each plate. The % of growth suppression was calculated as:
100−((Signal sample/Signal untreated cells)×100).
The results of the SaOs-2 His273 analyses were expressed as IC50 values, i.e. concentration that suppresses growth of at least 50% of the cells. The IC50 values of various compounds according to the invention and of some comparative compounds are shown in Table 1, Table 2, Table 3 and Table 4.

The nature of data set [3]: Stability study in pH 4 buffer at 25° C. The settings on record: for % Parent remaining at 48 h: LCMS, normalized to internal standard; for half-life at 0.2 mg/mL: pH 4 acetate buffer. It counts as physicochemical. As to the method: Chemical stability at low pH was investigated for selected compounds. Compounds that are highly unstable may not be suitable as drug candidates, for example due to potential difficulties in achieving and maintaining a stable and therapeutically effective formulation. For instance, compounds intended for oral administration must be chemically stable at the low pH observed in the stomach in order for this to be an acceptable route.
A pH 4 buffer was prepared by mixing 4.1 mL of 0.2 M acetic acid (aq.) with 0.9 mL of a 0.2 M sodium acetate (aq.) and then diluting to 10 mL with distilled water. The pH was determined by pH meter to 4.04.
Benzylpiperidine-4-ol was used as internal standard. A 1 mg/mL stock solution was prepared by dissolving 3.5 mg benzylpiperidine-4-ol in 3.5 mL of water. 500 μL of the stock solution were added to pH 4 buffer (5 mL) and the mixture was shaken.
A 1 mg/mL solution in acetonitrile was prepared for each test compound. Two drops of water were added to ca. 1 mL of acetonitrile in order to completely dissolve Example 2.
To 400 μL of pH 4 buffer with internal standard were added 100 μL of 1 mg/mL test compound solution. The solutions were stored at 25° C. and analyzed by LCMS directly and at different time points up to 48 hours. The [M+H]^+ ion for parent compound (test compound) and the internal standard (m/z 192) were extracted and integrated. The area for the parent compound was normalized to the area of the internal standard for each time point.
The half-life was calculated based on 1st order kinetics (t %=ln2/k). The rate constant (k) was obtained by plotting In[normalized peak area] against time.
Results for half-life and percent parent compound remaining at 48 h for selected examples and a comparative example are shown in Table 5.

Each structure is given as a SMILES string.

For the molecule `O=C1C2CCN(CC2)C1CNC(=O)C(F)(F)F` (racemic) [Example 4, 2,2,2-trifluoro-N-((3-oxoquinuclidin-2-yl)methyl)acetamide], the “tumor cell migration as measured by radiance of luminescence (FIG. 1A)” value in data set [1] (imaging day 18 and day 32) was “reduced tumor cell migration compared to control animals”. In addition, in data set [1] (tumors excised day 33), the “tumor weight (FIG. 1B)” value is recorded as “reduced tumor weight compared to control animals”. In addition, the IC50 in data set [2] is 5.6 µM.
Regarding `O=C1C2CCN(CC2)C1Cn1ccc(=O)[nH]c1=O` (racemic) [Example 23, 1-((3-oxoquinuclidin-2-yl)methyl)pyrimidine-2,4(1H,3H)-dione], the “% Parent remaining at 48 h” value in data set [3] is on record as 59%. In addition, the half-life at 0.2 mg/mL in data set [3] (1st order kinetics) is 67 h. Besides, in data set [2], the IC50 turned out to be 3.2 µM.
Taken in the same sequence, the figures for `Cc1cn(CC2C(=O)C3CCN2CC3)c(=O)[nH]c1=O` (racemic) [Example 24, 5-methyl-1-((3-oxoquinuclidin-2-yl)methyl)pyrimidine-2,4(1H,3H)-dione] were greater than 95%, greater than 630 h and 6.5 µM.
In data set [3] (1st order kinetics), `O=C1C2CCN(CC2)C1Cn1cc(F)c(=O)[nH]c1=O` (centres unmarked) [Comparative example 3, 5-fluoro-1-((3-oxoquinuclidin-2-yl)methyl)pyrimidine-2,4(H,3H)-dione, reference compound] displayed a Half-life of 15 h. The “% Parent remaining at 48 h” value in data set [3] is 18%.
Consider `Cc1cn(CC2C(=O)C3CCN2CC3)c(=O)n(CC2C(=O)C3CCN2CC3)c1=O` (centres unmarked) [Example 26, 5-methyl-1,3-bis((3-oxoquinuclidin-2-yl)methyl)-pyrimidine-2,4(1H,3H)-dione], for which, in data set [3], the “% Parent remaining at 48 h” value worked out at 73%. In data set [3] (1st order kinetics), this molecule gave a half-life at 0.2 mg/mL of 70 h. Further, in data set [2], the IC50 is 4 µM.

Usually IC50 stands for the concentration needed to halve the response being measured. As usually defined, the half-life is the time needed for the level to fall by half in the phase considered. Low values mean rapid decline, high ones slow decline.

The record behind these values is patent US20220071970A1, “QUINUCLIDINE-3-ONE DERIVATIVES AND THEIR USE IN CANCER TREATMENT” (Aprea Therapeutics AB, priority 2018, published 2022).
